Consider 9 compounds from ChEMBL document CHEMBL5055659, “Photosensitive and Photoswitchable TRPA1 Agonists Optically Control Pain through Channel Desensitization” (J Med Chem, 2021).

The source made the active and inactive calls. No cut-off for these calls is given here.

The nature of data set [1]: Photostability of the compound in bath solution by measuring reversible photo-isomerism measured after exposure to 365 to 530 nm UV irradiation by UV spectra. It counts as physicochemical.
Data set [2] has as its target T1, Transient receptor potential cation channel subfamily A member 1 (Homo sapiens, UniProt O75762). Put plainly: Agonist activity at TRPA1 expressed in CHO cells assessed as activation of channel current in presence of 330 - 380 nm UV irradiation by whole-cell patch clamp electrophysiology. It counts as cell-based. For orientation: Patch clamp records ionic current or voltage across a cell membrane.

The species named for data set [3] is Mus musculus. Put plainly: Antinociceptive activity against capsaicin-induced wild type C57BL/6J mouse left check pain model assessed as reduction in frequency of wiping within 10 mins at 1 mM smeared on left check followed by exposed to 365 nm UV light. It is filed as functional, organism-based.
The target of data set [4] is Sodium channel protein type 5 subunit alpha (Homo sapiens, UniProt Q14524). Nature of the data set: Effect on Nav1.5 (unknown origin) transfected in CHO cells assessed as activation of channel current in presence of 365 nm UV irradiation by whole-cell patch clamp electrophysiology. It counts as cell-based.
Sodium channel protein type 5 subunit alpha, sequence (Q14524 whole entry): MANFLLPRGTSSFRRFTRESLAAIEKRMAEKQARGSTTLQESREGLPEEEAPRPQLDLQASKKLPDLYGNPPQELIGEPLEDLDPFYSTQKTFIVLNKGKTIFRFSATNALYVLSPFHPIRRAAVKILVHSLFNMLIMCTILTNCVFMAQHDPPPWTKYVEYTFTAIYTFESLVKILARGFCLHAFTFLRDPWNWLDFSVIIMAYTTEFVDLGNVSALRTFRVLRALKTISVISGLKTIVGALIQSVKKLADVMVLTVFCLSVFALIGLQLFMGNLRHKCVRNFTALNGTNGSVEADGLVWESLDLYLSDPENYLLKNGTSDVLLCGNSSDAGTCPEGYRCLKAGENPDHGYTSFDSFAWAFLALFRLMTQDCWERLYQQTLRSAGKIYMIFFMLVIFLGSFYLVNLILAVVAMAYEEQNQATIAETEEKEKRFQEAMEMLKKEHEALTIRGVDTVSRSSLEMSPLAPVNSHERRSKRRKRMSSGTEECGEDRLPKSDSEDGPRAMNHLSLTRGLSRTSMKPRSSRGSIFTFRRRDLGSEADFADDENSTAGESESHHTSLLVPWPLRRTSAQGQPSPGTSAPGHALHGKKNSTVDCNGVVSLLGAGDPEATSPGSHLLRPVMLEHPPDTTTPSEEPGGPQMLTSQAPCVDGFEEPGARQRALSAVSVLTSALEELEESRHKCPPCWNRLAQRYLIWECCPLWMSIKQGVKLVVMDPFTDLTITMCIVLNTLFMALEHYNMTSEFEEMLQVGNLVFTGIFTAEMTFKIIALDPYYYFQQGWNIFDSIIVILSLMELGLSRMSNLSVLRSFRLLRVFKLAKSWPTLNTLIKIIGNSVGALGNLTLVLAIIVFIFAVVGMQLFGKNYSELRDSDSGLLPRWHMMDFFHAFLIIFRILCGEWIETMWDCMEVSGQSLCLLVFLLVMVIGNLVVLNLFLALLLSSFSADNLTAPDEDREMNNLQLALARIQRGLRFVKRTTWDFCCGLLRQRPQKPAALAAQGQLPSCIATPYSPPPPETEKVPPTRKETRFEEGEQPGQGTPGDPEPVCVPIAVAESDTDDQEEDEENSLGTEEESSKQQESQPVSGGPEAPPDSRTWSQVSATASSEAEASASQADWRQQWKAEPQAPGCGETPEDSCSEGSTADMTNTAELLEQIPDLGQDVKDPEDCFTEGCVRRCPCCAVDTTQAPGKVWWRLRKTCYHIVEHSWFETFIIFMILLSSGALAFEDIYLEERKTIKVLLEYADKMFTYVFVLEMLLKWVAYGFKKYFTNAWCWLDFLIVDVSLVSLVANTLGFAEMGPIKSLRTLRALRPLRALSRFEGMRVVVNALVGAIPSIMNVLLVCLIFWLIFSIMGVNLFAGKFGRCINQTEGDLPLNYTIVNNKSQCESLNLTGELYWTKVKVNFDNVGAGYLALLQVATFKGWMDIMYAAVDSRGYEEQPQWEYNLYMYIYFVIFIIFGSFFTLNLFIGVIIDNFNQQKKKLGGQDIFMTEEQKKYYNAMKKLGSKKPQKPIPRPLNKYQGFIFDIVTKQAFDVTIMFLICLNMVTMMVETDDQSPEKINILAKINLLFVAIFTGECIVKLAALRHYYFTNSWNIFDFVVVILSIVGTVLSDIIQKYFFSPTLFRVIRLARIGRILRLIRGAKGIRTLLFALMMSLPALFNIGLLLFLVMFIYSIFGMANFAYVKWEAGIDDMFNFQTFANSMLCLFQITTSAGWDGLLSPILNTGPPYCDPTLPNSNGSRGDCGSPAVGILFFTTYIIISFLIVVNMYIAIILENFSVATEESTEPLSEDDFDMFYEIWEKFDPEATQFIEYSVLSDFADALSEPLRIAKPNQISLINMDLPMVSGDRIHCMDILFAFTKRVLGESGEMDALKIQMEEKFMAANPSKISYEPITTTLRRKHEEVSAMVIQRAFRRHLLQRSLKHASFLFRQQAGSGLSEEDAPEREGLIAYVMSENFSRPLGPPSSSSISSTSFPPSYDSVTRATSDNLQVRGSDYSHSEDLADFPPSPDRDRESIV
For data set [5], the target named is T2, Transient receptor potential cation channel subfamily V member 3 (Homo sapiens) (UniProt Q8NET8).
T2 sequence (whole entry): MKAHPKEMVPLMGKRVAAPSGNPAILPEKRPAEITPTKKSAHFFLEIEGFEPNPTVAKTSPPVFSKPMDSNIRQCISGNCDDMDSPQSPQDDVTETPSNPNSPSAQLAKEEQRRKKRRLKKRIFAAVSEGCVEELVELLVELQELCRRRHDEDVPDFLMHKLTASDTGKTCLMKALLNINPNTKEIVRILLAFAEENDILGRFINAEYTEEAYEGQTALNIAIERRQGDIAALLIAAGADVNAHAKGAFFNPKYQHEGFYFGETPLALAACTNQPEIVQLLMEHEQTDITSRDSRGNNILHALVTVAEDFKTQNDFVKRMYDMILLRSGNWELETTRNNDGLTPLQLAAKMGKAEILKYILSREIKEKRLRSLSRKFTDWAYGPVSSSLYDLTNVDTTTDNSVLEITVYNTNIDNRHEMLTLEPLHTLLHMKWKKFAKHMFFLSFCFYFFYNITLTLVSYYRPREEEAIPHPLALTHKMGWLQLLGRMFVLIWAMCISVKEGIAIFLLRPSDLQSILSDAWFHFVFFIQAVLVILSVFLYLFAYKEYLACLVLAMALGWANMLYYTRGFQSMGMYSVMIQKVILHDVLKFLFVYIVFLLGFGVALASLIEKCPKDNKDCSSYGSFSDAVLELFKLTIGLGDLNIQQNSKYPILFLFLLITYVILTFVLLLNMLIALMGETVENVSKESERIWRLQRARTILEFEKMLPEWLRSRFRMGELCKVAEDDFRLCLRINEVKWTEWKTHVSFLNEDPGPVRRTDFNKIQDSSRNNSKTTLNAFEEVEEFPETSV
Nature of the data set: Effect on TRPV3 (unknown origin) transfected in CHO cells assessed as activation of channel current in presence of 365 nm UV irradiation by whole-cell patch clamp electrophysiology. It counts as cell-based.

Data set [6] can be described thus: Drug metabolism in cyclohexane assessed as thermal isomerization by measuring half life at 50 uM at 25 degC by UV-vis spectroscopy. It is filed as physicochemical.
Data set [7] has as its target Transient receptor potential cation channel subfamily V member 4 (Homo sapiens) (UniProt Q9HBA0). Put plainly: Effect on TRPV4 (unknown origin) transfected in CHO cells assessed as activation of channel current in presence of 365 nm UV irradiation by whole-cell patch clamp electrophysiology. It counts as cell-based.
Data set [8] is filed under the species Mus musculus. Put plainly: Antinociceptive activity against capsaicin-induced wild type C57BL/6J mouse left check pain model assessed as reduction in frequency of wiping within 10 mins at 1 mM smeared on left check. It is filed as functional, organism-based.
Data set [9] concerns the target Transient receptor potential cation channel subfamily A member 1 (Mus musculus) (UniProt Q8BLA8). Put plainly: In vivo induction of TRPA1 channel desensitization in capsaicin-induced wild type C57BL/6J mouse left check pain model assessed as macroscopic current desensitization at 300 uM treated 11 consecutive repeat measured after exposed to 365 nm UV light. It is filed as functional, organism-based.

Data set [10] has as its target T1, Transient receptor potential cation channel subfamily A member 1. Put plainly: Agonist activity at human TRPA1 expressed in HEK293 cells assessed as induction of Ca2+ influx at 10 uM measured under 365 nm UV irradiation by Fluo-8 based calcium imaging assay. The conditions noted are these: filed as agonist. It counts as cell-based.
Data set [11] in a line: Drug metabolism in cell external solution assessed as thermal isomerization by measuring half life at 50 uM at 25 degC by UV-vis spectroscopy. It counts as ADME.
The test system of the next data set is HEK293. Put plainly: Induction of Ca2+ influx in TRPA1 untransfected HEK293 cells at 10 uM measured under 365 nm UV irradiation by Fluo-8 based calcium imaging assay. It is filed as functional, cell-based. The settings on record: Homo sapiens.
The species named for data set [12] is Mus musculus. Put plainly: Antinociceptive activity against capsaicin-induced […] knock-out C57BL/6J mouse left check pain model assessed as reduction in frequency of wiping within 10 mins at 1 mM smeared on left check followed by exposed to 365 nm UV light. It counts as functional, organism-based.
For data set [13], the target named is T1, Transient receptor potential cation channel subfamily A member 1. Put plainly: Agonist activity at human TRPA1 expressed in HEK293 cells assessed as induction of Ca2+ influx at 10 uM measured under dark by Fluo-8 based calcium imaging assay. It counts as cell-based.
Data set [14] has the same target. Put plainly: Inhibition of fluorescent probe A1CA binding to TRPA1 (unknown origin) expressed in CHO cells assessed as decrease in fluorescent intensity at 10 uM incubated for 2 mins by confocal fluorescence microscopy. It counts as cell-based.
The nature of data set [15]: Drug metabolism in bath solution assessed as photochemical switch by measuring cis-isoform at 50 uM measured after exposure to 365 nm UV irradiation by HPLC analysis. It is filed as physicochemical.
Data set [16] can be described thus: Drug metabolism in bath solution assessed as photochemical switch by measuring trans-isoform reversal at 50 uM measured after exposure to 415 nm UV irradiation by HPLC analysis. It is filed as physicochemical.
Data set [17] has as its target Sodium channel protein type 4 subunit alpha (Homo sapiens) (UniProt P35499). Nature of the data set: Effect on Nav1.4 (unknown origin) transfected in CHO cells assessed as activation of channel current in presence of 365 nm UV irradiation by whole-cell patch clamp electrophysiology. It counts as cell-based.
Data set [18] concerns the target T1, Transient receptor potential cation channel subfamily A member 1. Nature of the data set: Agonist activity at TRPA1 expressed in CHO cells assessed as reversal of activated channel current in presence of 410 - 420 nm UV irradiation at 100 uM by whole-cell patch clamp electrophysiology. It is filed as cell-based.
Data set [19] has the same target. Put plainly: Agonist activity at human TRPA1 expressed in HEK293 cells assessed as induction of Ca2+ influx at 300 uM measured under 365 nm UV irradiation by Fluo-8 based calcium imaging assay. It counts as cell-based. The settings on record: filed as agonist.

T1 sequence (O75762 whole entry): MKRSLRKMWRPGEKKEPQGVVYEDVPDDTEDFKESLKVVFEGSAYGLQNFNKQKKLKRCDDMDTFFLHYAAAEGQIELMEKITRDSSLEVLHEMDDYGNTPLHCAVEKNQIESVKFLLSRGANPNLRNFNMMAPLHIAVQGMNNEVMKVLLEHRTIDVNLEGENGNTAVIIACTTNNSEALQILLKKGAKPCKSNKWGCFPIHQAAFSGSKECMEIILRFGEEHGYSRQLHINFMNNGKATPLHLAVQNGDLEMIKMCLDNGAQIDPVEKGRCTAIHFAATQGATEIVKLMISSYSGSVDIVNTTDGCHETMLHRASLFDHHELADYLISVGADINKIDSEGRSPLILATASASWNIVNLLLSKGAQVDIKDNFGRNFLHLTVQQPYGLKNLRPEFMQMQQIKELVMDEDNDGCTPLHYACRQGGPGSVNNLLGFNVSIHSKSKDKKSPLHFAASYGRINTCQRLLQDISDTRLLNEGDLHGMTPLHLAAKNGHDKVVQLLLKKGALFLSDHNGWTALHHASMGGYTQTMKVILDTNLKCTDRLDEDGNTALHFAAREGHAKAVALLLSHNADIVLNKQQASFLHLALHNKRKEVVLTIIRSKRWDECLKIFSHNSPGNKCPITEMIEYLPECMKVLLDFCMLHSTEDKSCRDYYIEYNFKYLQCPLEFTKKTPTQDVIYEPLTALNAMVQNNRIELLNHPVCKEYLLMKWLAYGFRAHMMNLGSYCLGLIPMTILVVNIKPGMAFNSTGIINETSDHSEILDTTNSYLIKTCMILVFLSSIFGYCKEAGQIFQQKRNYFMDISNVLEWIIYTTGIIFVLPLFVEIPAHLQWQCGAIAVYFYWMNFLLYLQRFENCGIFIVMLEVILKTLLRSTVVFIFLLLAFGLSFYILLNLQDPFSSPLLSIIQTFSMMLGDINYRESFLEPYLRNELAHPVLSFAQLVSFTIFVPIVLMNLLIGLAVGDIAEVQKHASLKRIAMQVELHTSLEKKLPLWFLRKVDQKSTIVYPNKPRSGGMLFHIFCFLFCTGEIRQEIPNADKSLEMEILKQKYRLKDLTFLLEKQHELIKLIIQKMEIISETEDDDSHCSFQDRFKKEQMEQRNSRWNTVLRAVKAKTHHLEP
Transient receptor potential cation channel subfamily V member 4 (Homo sapiens), sequence (Q9HBA0 whole entry): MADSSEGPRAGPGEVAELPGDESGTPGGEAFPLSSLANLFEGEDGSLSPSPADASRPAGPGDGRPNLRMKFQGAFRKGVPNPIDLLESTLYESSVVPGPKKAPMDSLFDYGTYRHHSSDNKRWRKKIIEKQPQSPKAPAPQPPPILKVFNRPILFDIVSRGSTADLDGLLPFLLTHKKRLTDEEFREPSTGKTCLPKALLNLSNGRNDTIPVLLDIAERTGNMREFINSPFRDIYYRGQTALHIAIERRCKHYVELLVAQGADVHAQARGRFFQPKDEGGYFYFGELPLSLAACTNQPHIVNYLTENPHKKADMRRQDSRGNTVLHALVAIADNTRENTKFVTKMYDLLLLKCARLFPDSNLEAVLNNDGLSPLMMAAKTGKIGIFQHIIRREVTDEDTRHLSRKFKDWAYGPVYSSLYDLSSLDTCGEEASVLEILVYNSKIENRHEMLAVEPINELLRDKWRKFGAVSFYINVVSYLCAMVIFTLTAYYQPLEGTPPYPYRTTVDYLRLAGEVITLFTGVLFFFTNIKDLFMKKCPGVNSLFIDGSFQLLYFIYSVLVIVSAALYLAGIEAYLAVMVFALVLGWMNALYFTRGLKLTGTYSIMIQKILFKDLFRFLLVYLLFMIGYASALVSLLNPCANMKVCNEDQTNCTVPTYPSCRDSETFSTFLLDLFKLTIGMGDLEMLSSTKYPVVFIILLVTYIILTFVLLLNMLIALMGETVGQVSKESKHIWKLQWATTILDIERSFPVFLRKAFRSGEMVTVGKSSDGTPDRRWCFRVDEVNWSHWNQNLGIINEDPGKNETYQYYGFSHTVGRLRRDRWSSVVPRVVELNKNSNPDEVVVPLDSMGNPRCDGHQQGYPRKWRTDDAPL
Transient receptor potential cation channel subfamily A member 1 (Mus musculus), sequence (Q8BLA8 whole entry): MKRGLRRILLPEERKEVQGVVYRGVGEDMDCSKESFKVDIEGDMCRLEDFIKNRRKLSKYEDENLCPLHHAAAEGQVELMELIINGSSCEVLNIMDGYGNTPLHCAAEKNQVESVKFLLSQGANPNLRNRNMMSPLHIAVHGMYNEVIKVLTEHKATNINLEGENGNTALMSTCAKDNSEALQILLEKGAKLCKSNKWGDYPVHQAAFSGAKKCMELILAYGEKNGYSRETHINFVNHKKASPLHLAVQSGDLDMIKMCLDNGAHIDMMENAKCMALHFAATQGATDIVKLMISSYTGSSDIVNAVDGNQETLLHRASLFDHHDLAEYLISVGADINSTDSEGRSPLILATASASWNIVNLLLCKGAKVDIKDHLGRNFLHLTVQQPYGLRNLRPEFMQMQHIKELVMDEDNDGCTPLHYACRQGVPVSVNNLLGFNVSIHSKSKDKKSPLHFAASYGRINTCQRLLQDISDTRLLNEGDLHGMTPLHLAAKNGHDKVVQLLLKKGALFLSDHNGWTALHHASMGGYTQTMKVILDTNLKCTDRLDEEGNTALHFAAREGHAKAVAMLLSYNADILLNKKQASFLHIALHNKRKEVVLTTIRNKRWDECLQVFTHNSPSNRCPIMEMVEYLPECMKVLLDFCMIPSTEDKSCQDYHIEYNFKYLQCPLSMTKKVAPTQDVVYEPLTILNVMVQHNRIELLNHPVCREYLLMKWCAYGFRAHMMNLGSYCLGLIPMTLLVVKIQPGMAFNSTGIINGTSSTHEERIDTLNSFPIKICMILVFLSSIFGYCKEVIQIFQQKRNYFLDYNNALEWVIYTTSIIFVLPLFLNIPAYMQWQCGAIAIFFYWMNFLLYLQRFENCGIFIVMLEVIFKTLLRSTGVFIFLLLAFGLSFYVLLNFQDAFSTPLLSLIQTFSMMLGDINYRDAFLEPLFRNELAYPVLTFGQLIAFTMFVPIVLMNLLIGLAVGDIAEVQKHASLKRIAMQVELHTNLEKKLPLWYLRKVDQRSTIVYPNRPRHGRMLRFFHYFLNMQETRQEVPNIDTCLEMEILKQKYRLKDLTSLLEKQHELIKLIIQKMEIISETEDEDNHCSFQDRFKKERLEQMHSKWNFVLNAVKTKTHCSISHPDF

For orientation: EC50 means the concentration needed to bring the measured effect to its halfway point. As a reminder, the half-life is how long it takes for the measured level to halve. Take `Clc1cc(/N=N/c2ccccc2)ccn1`: in [1], the Stability entry is reported as “Stable”. Also, the EC50 in data set [2] came out at 5.55 µM. Further, the result (in the data set filed under Mus musculus [3]; in data set [9]; in [10]) was Active. Moreover, the Activity entry in data set [4] is reported as “Not Active”. The outcome (in [5]; in data set [7]; in the data set listed under Mus musculus [8]; with HEK293; in the data set filed under Mus musculus [12]; in [13]) was inactive. In data set [17], the result was inactive. Further, the results for the half-life at 50 µM in [6] and in data set [11] were 5.3 min and 9.67 min, respectively. Also, the inhibition entry in [14] is “Active”. Also, the Drug metabolism entry in [15] and in data set [16] was “Metabolite_Detected” in each case.
On to `Oc1cccc(/N=N/c2ccccc2)c1`, for which the Stability result in [1] is reported as “Stable”. The EC50 in data set [2] was 104 µM. In addition, the result (in the data set filed under Mus musculus [3]; in data set [18]; in the data set on HEK293; in data set [13]) was inactive. Further, the values for the half-life at 50 µM in data set [6] and in data set [11] were 1.65 min and 2.43 min, respectively. Also, the outcome in data set [10] was Active. In addition, the inhibition entry in data set [14] is “Active”. For the same compound, the Drug metabolism entry in data set [15] and in data set [16] was “Metabolite_Detected” each time.
With `Cc1cnccc1/N=N/c1ccccc1`, in data set [1], the Stability result is given as “Stable”. The half-maximal effective concentration (EC50) in [2] was 19.2 µM. Further, the result (in the data set filed under Mus musculus [3]; with HEK293; in data set [13]) was inactive. In [6], the half-life at 50 µM is 1.67 min. In data set [10], the outcome was Active. Further, the inhibition result in data set [14] was “Active”. The Drug metabolism result in [15] is “Metabolite_Notdetected”.
In the case of `c1ccc(/N=N/c2ccncc2)cc1`, the inhibition result in [14] was “Active”.
`C[C@H](CCC(=O)O)C[C@H](C)C[C@H](C)C(=O)/C=C(\O)[C@H](C)C[C@H](C)C/C=C/[C@@H](C)[C@@H](O)[C@@H](C)[C@@H](O)C[C@@H]1CC[C@@](C)([C@H]2CC[C@@](C)([C@@H](C)O)O2)O1`: the outcome in [10] was Active.
On to `O=C(O)c1ccc(/N=N/c2ccccc2)cc1`, for which, in data set [1], the Stability entry is listed as “Stable”. Moreover, the EC50 in data set [2] stood at 24.8 µM. Further, the result (in the data set filed under Mus musculus [3]; in data set [9]; in data set [10]) was Active. The Activity entry in data set [4] was “Not Active”. In addition, the outcome (in data set [5]; in [7]; in the data set filed under Mus musculus [8]; in the data set with HEK293; in the data set filed under Mus musculus [12]; in data set [13]) was inactive. Further, the outcome in data set [17] was inactive. For the same compound, the results for the half-life at 50 µM in data set [6] and in data set [11] were 1.35 min and 6.55 min, respectively. In [14], the inhibition entry was “Active”. The Drug metabolism result in [15] and in data set [16] was “Metabolite_Detected” throughout.
As to `C=CCN=C=S`, in [19], the result was Active.
In the case of `Nc1cccc(/N=N/c2ccccc2)c1`, the Stability entry in [1] is “Stable”. Moreover, in data set [10], the result was Active. Also, the result (with HEK293; in data set [13]) was inactive. Further, the inhibition entry in [14] is “Active”. Moreover, in data set [15], the Drug metabolism result is given as “Metabolite_Notdetected”.
For the compound `Oc1ccc(/N=N/c2ccccc2)cc1`, the inhibition entry in data set [14] is “Active”.
